This passage reports X-ray crystallography results from PMC12394179, “Re‐engineering a transferase scaffold for indole C3 methylation in diketopiperazines” (Protein Science : A Publication of the Protein Society, 2025).

For the experiment, the target named is T1, SeMT (Saccharopolyspora erythraea, UniProt A4FFC0).
T1 construct: gene SACE_3471; codon-harmonized synthetic gene in pET28a(+), E. coli BL21(DE3), Ni-NTA purified; dimer
T1 sequence (A4FFC0 1-266): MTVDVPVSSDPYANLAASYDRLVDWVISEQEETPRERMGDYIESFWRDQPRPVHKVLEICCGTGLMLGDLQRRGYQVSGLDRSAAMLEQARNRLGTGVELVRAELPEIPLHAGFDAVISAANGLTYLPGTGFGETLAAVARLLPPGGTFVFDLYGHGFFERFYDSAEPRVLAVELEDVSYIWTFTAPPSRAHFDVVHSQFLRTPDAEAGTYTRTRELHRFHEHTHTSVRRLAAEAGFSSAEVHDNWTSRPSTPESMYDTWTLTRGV
The experiment is described as follows: X-ray crystallography. It is filed as binding. Conditions: co-crystal with 2 mM SAH, pH 5.6 reservoir; cofactor site (product of methyl transfer).

`Nc1ncnc2c1ncn2[C@@H]1O[C@H](CSCC[C@H](N)C(=O)O)[C@@H](O)[C@H]1O` [SAH]: the X-ray crystallography entry is given as “the demethylated cofactor SAH (included in the sample for crystallization) is found embraced”.
